Data published in US9988420B2, “Cytotoxic peptides and conjugates thereof” (priority 2013, dated 2018).

What was measured:
Assay in all cases: In vitro cell killing assay of payloads (cell proliferation, Cell-Titer-Glo)
Type in all cases: cell-based
JimT1 cells = conditions: Homo sapiens, JIMT-1, 120 h; JimT1 cells; Cell-Titer-Glo after five days; Table 2b; read-out: In vitro cell killing (IC50 (nM)) JimT1
H526 cells = conditions: Homo sapiens, 120 h; NCI-H526 cells; Cell-Titer-Glo after five days; Table 2b; read-out: In vitro cell killing (IC50 (nM)) NCI-H526
A375 cells = conditions: Homo sapiens, A-375, 120 h, Cell-Titer-Glo after five days
Experimental: (§1) For evaluation of the cell killing potency of the cytotoxic peptides of Formula (I) in vitro, cell proliferation assays were performed in parallel with 8 cell lines: MDA-MB231 clone 16, clone 40, JimT1, HCC1954, H526, KU812, CMK11-5 cells and Jurkat cells. In addition, in vitro, cell proliferation assays were performed using 3 other cell lines: A375, SKBR3 and NCI-N87. All the cell lines are described in more detail in Example 106 and were also used to assess the in vitro potency of immunoconjugates of the invention. The cell proliferation assays were conducted with Cell-Titer-Glo™ (Promega) five days after cells were incubated with various concentrations of ADCs (Riss et al., (2004) Assay Drug Dev Technol. 2:51-62).

NCI-N87 cells = conditions: Homo sapiens, 120 h, Cell-Titer-Glo after five days
Experimental: as §1

SKBR3 cells = conditions: Homo sapiens, SK-BR-3, 120 h, Cell-Titer-Glo after five days
Experimental: as §1

| SMILES | IC50 (JimT1 cells) [nM] | IC50 (H526 cells) [nM] | IC50 (A375 cells) [nM] | IC50 (NCI-N87 cells) [nM] | IC50 (SKBR3 cells) [nM] |
| --- | --- | --- | --- | --- | --- |
| CC[C@H](C)[C@@H]([C@@H](CC(=O)N1CCC[C@H]1[C@H](OC)[C@@H](C)C(=O)N[C@@H](Cc1ccccc1)c1nc(-c2ccccc2)c[nH]1)OC)N(C)C(=O)[C@@H](NC(=O)[C@H]1N[C@@H]2CC[C@H]1C2)C(C)C [Compound 57, (1R,3S,4S)-N-((S)-1-(((3R,4S,5S)-3-Methoxy-1-((S)-2-((1R,2R)-1-methoxy-2-methyl-3-oxo-3-(((S)-2-phenyl-1-(5-phenyl-1H-imidazol-2-yl)ethyl)amino)propyl)pyrrolidin-1-yl)-5-methyl-1-oxoheptan-4-yl)(methyl)amino)-3-methyl-1-oxobutan-2-yl)-2-azabicyclo[2.2.1]heptane-3-carboxamide] | 0.307 | 1.11 | 0.049 | 0.019 | 0.034 |
| CC[C@H](C)[C@@H]([C@@H](CC(=O)N1CCC[C@H]1[C@H](OC)[C@@H](C)C(=O)N[C@H](COC)Cc1ccccc1)OC)N(C)C(=O)[C@@H](NC(=O)[C@H]1N[C@@H]2CC[C@H]1C2)C(C)C [Compound 58, (1R,3S,4S)-N-((S)-1-(((3R,4S,5S)-3-Methoxy-1-((S)-2-((1R,2R)-1-methoxy-3-(((S)-1-methoxy-3-phenylpropan-2-yl)amino)-2-methyl-3-oxopropyl)pyrrolidin-1-yl)-5-methyl-1-oxoheptan-4-yl)(methyl)amino)-3-methyl-1-oxobutan-2-yl)-2-azabicyclo[2.2.1]heptane-3-carboxamide] | 2.15 | 4.08 | 0.304 | 0.31 | 0.307 |
| CC[C@H](C)[C@@H]([C@@H](CC(=O)N1CCC[C@H]1[C@H](OC)[C@@H](C)C(=O)N[C@@H](Cc1ccccc1)c1cc[nH]n1)OC)N(C)C(=O)[C@@H](NC(=O)[C@H]1N[C@@H]2CC[C@H]1C2)C(C)C [Compound 59, (1R,3S,4S)-N-((S)-1-(((3R,4S,5S)-3-Methoxy-1-((S)-2-((1R,2R)-1-methoxy-2-methyl-3-oxo-3-(((S)-2-phenyl-1-(1H-pyrazol-3-yl)ethyl)amino)propyl)pyrrolidin-1-yl)-5-methyl-1-oxoheptan-4-yl)(methyl)amino)-3-methyl-1-oxobutan-2-yl)-2-azabicyclo[2.2.1]heptane-3-carboxamide] | 37.5 | 19.5 | 3.55 | 4.78 | 3.12 |
| CC[C@H](C)[C@@H]([C@@H](CC(=O)N1CCC[C@H]1[C@H](OC)[C@@H](C)C(=O)N[C@@H](Cc1ccccc1)c1ncccn1)OC)N(C)C(=O)[C@@H](NC(=O)[C@H]1N[C@@H]2CC[C@H]1C2)C(C)C [Compound 60, (1R,3S,4S)-N-((S)-1-(((3R,4S,5S)-3-Methoxy-1-((S)-2-((1R,2R)-1-methoxy-2-methyl-3-oxo-3-(((S)-2-phenyl-1-(pyrimidin-2-yl)ethyl)amino)propyl)pyrrolidin-1-yl)-5-methyl-1-oxoheptan-4-yl)(methyl)amino)-3-methyl-1-oxobutan-2-yl)-2-azabicyclo[2.2.1]heptane-3-carboxamide] | 4.82 | 8.35 | 0.45 | 0.801 | 0.591 |
| CC[C@H](C)[C@@H]([C@@H](CC(=O)N1CCC[C@H]1[C@H](OC)[C@@H](C)C(=O)N[C@H](Cc1ccccc1)c1ncccn1)OC)N(C)C(=O)[C@@H](NC(=O)[C@H]1N[C@@H]2CC[C@H]1C2)C(C)C [Compound 61, (1R,3S,4S)-N-((S)-1-(((3R,4S,5S)-3-methoxy-1-((S)-2-((1R,2R)-1-methoxy-2-methyl-3-oxo-3-(((R)-2-phenyl-1-(pyrimidin-2-yl)ethyl)amino)propyl)pyrrolidin-1-yl)-5-methyl-1-oxoheptan-4-yl)(methyl)amino)-3-methyl-1-oxobutan-2-yl)-2-azabicyclo[2.2.1]heptane-3-carboxamide] | 66 | 60.6 | 5.43 | 13.5 | 6.1 |
